# Patent US9732088B2, “C2-carbocyclic iminothiazine dioxides as BACE inhibitors, compositions, and their use” (Merck Sharp & Dohme Corp., priority 2014, dated 2017)
# How the values were obtained:
# [1] = system: HepG2 cells; assay: In Vitro Phospholipidosis Assay; format: cell-based; conditions: 20 μM, 24 hours, normalized to DMSO
# Description: [formula] Assay 7: In Vitro Phospholipidosis Assay
# Drug-induced phospholipidosis (PL) is characterized by intracellular accumulation of phospholipids with lamellular bodies, and may result from impaired phospholipid metabolism in the lysosome (Anderson et al., 2006, FEBS Letter, 580, 5533-5540), and many compounds known to cause drug-induced PL are also associated with adverse drug reactions. Using a method described in the literature (Bhandari et al., 2008, Assay and Drug Dev. Tech., 6(3), 407-419), an in vitro cellular assay can provide data that can determine the PL potential of test compounds. In this assay, compounds that lower values for mean inclusion count of a fluorescent phospholipid (described below) versus control are associated with reduced potential for PL.
# HepG2 cells were dispensed into 96-well collagen I coated plates at an initial density of 2.0×10^5 cells in 200 μL complete culturing medium (MEM Media w/Earle's Balanced Salt Solution supplemented with 10 IU penicillin, 10 μg/mL streptomycin, and 10% heat inactivated fetal bovine serum). Cells were incubated overnight at 37° C. with 5% CO2, 89% humidity prior to treatment.
# A solution of fluorescently labeled phospholipid N-(7-nitrobenz-2-oxa-1,3-diazol-4-yl)-1,2-dihexadecanoyl-sn-glycero-3-phosphoethanolamine (NBD-PE) was prepared at a concentration of 10 mM in absolute ethanol. Dissolution of the NBD-PE was facilitated by sonication in a room temperature water bath for 30 minutes. NBD-PE medium was prepared by diluting NBD-PE stock to a final concentration of 50 μM in complete culturing medium, filtering (pore size, 0.22 μm) prior to use.
# Compound treatment stocks were prepared in dimethyl sulfoxide at 500× final concentrations. Working treatment solutions were prepared by diluting compound stocks into NBD-PE medium with DMSO serving as the vehicle control. Treatment concentration was 20 μM. Amiodarone ((2-{4-[(2-butyl-1-benzofuran-3-yl)carbonyl]-2,6-diiodophenoxy}ethyl)diethylamine) served as the assay positive control at the same concentration. All treatments were tested in triplicate for 24 hours.
# Following treatment, cultures were rinsed once with Hank's Balanced Salt Solution (HBSS) containing no phenol red. Cultures were then incubated for 30 minutes at 37° C. with […] Hoechst 33342 nuclear stain and […] cell tracker orange cytoplasm stain. After incubation, cells were rinsed once with HBSS and then fixed in 2% formalin solution.
# Cultures were imaged using the IN Cell Analyzer 2000 imaging system. One set of images were acquired with the 4× objective using the appropriate Hoechst filter settings to acquire a full-well cell count. Another set of images were acquired to evaluate treatment-related phospholipidosis with the 20× objective.
# Images were analyzed using custom algorithms created in the IN Cell Workstation software using NBD-PE inclusion count in the cell cytoplasm as and endpoint associated with phospholipidosis. Data were expressed as fold over control, normalized to the DMSO vehicle control response.
# [2] = target: BACE-1 (Homo sapiens (Human), UniProt P56817); conditions: data reported in US′109; read-out: BACE-1 Ki (nM) (ii) Data reported in US′109; cited from earlier work
# [3] = system: CSF Aβ40; conditions: cited from earlier work
# BACE-1, sequence (P56817 46-501, species assumed): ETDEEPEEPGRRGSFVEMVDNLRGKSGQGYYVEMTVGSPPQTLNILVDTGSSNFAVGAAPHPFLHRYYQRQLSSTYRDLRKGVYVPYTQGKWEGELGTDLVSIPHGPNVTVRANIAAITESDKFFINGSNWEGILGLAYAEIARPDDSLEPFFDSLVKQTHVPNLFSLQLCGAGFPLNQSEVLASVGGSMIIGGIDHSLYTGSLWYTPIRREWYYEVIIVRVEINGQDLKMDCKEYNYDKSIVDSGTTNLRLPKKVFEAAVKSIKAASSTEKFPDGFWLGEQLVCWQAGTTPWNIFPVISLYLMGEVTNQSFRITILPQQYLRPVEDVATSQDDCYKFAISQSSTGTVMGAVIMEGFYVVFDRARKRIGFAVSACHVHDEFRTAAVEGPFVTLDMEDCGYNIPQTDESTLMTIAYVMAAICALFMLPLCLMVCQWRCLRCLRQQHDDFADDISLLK
SMILES,In Vitro Phospholipidosis Assay: Mean NBD-PE Inclusion Count (Fold over control) [1] [Fold over control],Ki [2] [nM],Aβ reduction in vivo in rat (Δ% CSF Aβ40 @ 10 mpk) (ii) Data reported in US′109 [3] [%]
"COc1cnc2c(Nc3ccc(F)c([C@]4(C)CS(=O)(=O)C(C)(C)C(N)=N4)c3)nccc2n1 [Ex 47 of WO2014059185, reference compound]",13,2.9,−82
"C[C@@]1(c2nc(Nc3nccc4cc(C#N)cnc34)ncc2F)CS(=O)(=O)[C@@](C)(C2CC2)C(N)=N1 [Example 5, 8-({4-[(3R,6S)-6-cyclopropyl-5-imino-3,6-dimethyl-1,1-dioxidothiomorpholin-3-yl]-5-fluoropyrimidin-2-yl}amino)-1,7-naphthyridine-3-carbonitrile]",1.3,,
"COc1cnc2c(Nc3cc([C@]4(C)CS(=O)(=O)[C@@](C)(C5CC5)C(N)=N4)c(F)cn3)nccc2c1 [Example 6, N-{4-[(3R,6S)-6-cyclopropyl-5-imino-3,6-dimethyl-1,1-dioxidothiomorpholin-3-yl]-5-fluoropyridin-2-yl}-3-methoxy-1,7-naphthyridin-8-amine]",3.1,,
"COc1cnc2c(Nc3ccc(F)c([C@]4(C)CS(=O)(=O)[C@@](C)(C5CC5)C(N)=N4)c3)ncnc2n1 [Example 22, (2S,5R)-2-cyclopropyl-5-(2-fluoro-5-((7-methoxypteridin-4-yl)amino)phenyl)-3-imino-2,5-dimethylthiomorpholine 1,1-dioxide]",0.9,,
